Cell viability data for 6 compounds are collected here from the supplement of paper PMC11451515.

This assay relates to NOMO1. In words: cell viability relative to DMSO control; higher = less cytotoxic. The note with it: 48 h. The method in brief: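 NOMO1 or SEM (500 cells/well) or P12-Ichikawa (1000 cells/well) leukemia cells were adapted for at least four passages in each medium. They were seeded in 1536-well plates (5 μl) and pin-dosed with library compounds in DMSO over an 11-point threefold series, 47 μM to 0.79 nM. CellTiter-Glo One luminescence was read after 48 h at 37°C. Viability is the per-plate percentage relative to DMSO wells, with cell-free wells as background.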

Where [1] appears, read: RPMI 5 mM glucose + 10% FBS, 0.000781 µM.
[2] abbreviates: RPMI 5 mM glucose + 10% FBS, 0.00234 µM.
Setting [3] is: RPMI 5 mM glucose + 10% FBS, 0.00702 µM.
[4] abbreviates: RPMI 5 mM glucose + 10% FBS, 0.0211 µM.
[5] abbreviates: RPMI 5 mM glucose + 10% FBS, 0.0632 µM.
Setting [6] is: RPMI 5 mM glucose + 10% FBS, 0.19 µM.
The mark [7] stands for this setting: RPMI 5 mM glucose + 10% FBS, 0.569 µM.
Setting [8] is: RPMI 5 mM glucose + 10% FBS, 1.71 µM.
[9] abbreviates: RPMI 5 mM glucose + 10% FBS, 5.12 µM.
The mark [10] stands for this setting: RPMI 5 mM glucose + 10% FBS, 15.4 µM.
Setting [11] is: RPMI 5 mM glucose + 10% FBS, 46.1 µM.
Setting [12] is: RPMI 5 mM glucose + 10% dialyzed FBS, 0.000781 µM.
Setting [13] is: RPMI 5 mM glucose + 10% dialyzed FBS, 0.00234 µM.
Setting [14] is: RPMI 5 mM glucose + 10% dialyzed FBS, 0.00702 µM.
Where [15] appears, read: RPMI 5 mM glucose + 10% dialyzed FBS, 0.0211 µM.
The mark [16] stands for this setting: RPMI 5 mM glucose + 10% dialyzed FBS, 0.0632 µM.
The mark [17] stands for this setting: RPMI 5 mM glucose + 10% dialyzed FBS, 0.19 µM.
The mark [18] stands for this setting: RPMI 5 mM glucose + 10% dialyzed FBS, 0.569 µM.
[19] abbreviates: RPMI 5 mM glucose + 10% dialyzed FBS, 1.71 µM.
[20] abbreviates: RPMI 5 mM glucose + 10% dialyzed FBS, 5.12 µM.
Setting [21] is: RPMI 5 mM glucose + 10% dialyzed FBS, 15.4 µM.
Setting [22] is: RPMI 5 mM glucose + 10% dialyzed FBS, 46.1 µM.

Usually cell viability stands for a read-out of living cells in per cent, often relative to untreated cells.

Regarding `CN1[C@@H]2CC[C@H]1CC(OC(=O)c1c[nH]c3ccccc13)C2` (stereo partly specified), the cell viability turned out to be 115% under setting [1]; 125% under setting [2]; 120% under setting [3]; 114% under setting [4]; 129% under setting [5]; 112% under setting [6]. Also, the cell viability by setting is: under setting [7], 106%; under setting [8], 117%; under setting [9], 124%; under setting [10], 114%; under setting [11], 99.3%; under setting [12], 119%. For the same compound, the cell viability runs as follows: under setting [13], 127%; under setting [14], 119%; under setting [15], 107%; under setting [16], 109%; under setting [17], 115%; under setting [18], 113%. Besides, the cell viability is, setting by setting: under setting [19], 118%; under setting [20], 119%; under setting [21], 104%; under setting [22], 94.9%.

Take `CN\1C(=O)/C(=C(\N=C1N2CCCC[S+]2([O-])=O)C(=O)NCC3=CC=C(F)C=C3)O`: the cell viability is, setting by setting: under setting [1], 113%; under setting [2], 105%; under setting [3], 116%; under setting [4], 124%; under setting [5], 116%; under setting [6], 107%. The cell viability runs as follows: under setting [7], 112%; under setting [8], 123%; under setting [9], 115%; under setting [10], 113%; under setting [11], 106%; under setting [12], 123%. For the same compound, the cell viability by setting is: under setting [13], 116%; under setting [14], 119%; under setting [15], 123%; under setting [16], 111%; under setting [17], 119%; under setting [18], 113%. The cell viability is, setting by setting: under setting [19], 107%; under setting [20], 118%; under setting [21], 105%; under setting [22], 99.2%.

Turning to `NC[C@H]1CC[C@H](C(=O)O)CC1`, the cell viability was 112% under setting [1]; 133% under setting [2]; 105% under setting [3]; 109% under setting [4]; 119% under setting [5]; 128% under setting [6]. In addition, the cell viability was 110% under setting [7]; 110% under setting [8]; 116% under setting [9]; 121% under setting [10]; 120% under setting [11].

In the case of `CN(c1ncccc1CNc1nc(Nc2ccc3c(c2)CC(=O)N3)ncc1C(F)(F)F)[S+](C)(=O)[O-]`, the cell viability under setting [1] was determined as 112%; the cell viability under setting [2] was 113%; the cell viability under setting [3] was 115%; the cell viability under setting [4] was determined as 105%; the cell viability under setting [5] stood at 116%; the cell viability under setting [6] came to 116%. The cell viability reads like this: under setting [7], 99.3%; under setting [8], 103%; under setting [9], 97.7%; under setting [10], 93.9%; under setting [11], 18.7%; under setting [12], 104%. Also, the cell viability runs as follows: under setting [13], 107%; under setting [14], 116%; under setting [15], 106%; under setting [16], 117%; under setting [17], 117%; under setting [18], 124%. The cell viability under setting [19] was determined as 104%, the cell viability under setting [20] is 114%, the cell viability under setting [21] was 86.5% and the cell viability under setting [22] was 20.6%.

As to `COc1cc2c(cc1OC)C1CC(=O)C(CC(C)C)CN1CC2` (stereo unspecified), the cell viability was determined as 116% under setting [1]; 106% under setting [2]; 106% under setting [3]; 104% under setting [4]; 134% under setting [5]; 117% under setting [6]. For the same compound, the cell viability is, setting by setting: under setting [7], 116%; under setting [8], 104%; under setting [9], 113%; under setting [10], 113%; under setting [11], 103%; under setting [12], 117%. The cell viability is, setting by setting: under setting [13], 133%; under setting [14], 109%; under setting [15], 115%; under setting [16], 148%; under setting [17], 124%; under setting [18], 128%. Moreover, the cell viability amounted to 121% under setting [19], 115% under setting [20], 110% under setting [21] and 125% under setting [22].

Regarding `ClC1=C(N\C2=N\CCN2)C3=NSN=C3C=C1`, the cell viability reads like this: under setting [1], 108%; under setting [2], 119%; under setting [3], 120%; under setting [4], 123%; under setting [5], 112%; under setting [6], 118%. Moreover, the cell viability by setting is: under setting [7], 119%; under setting [8], 135%; under setting [9], 117%; under setting [10], 125%; under setting [11], 144%; under setting [12], 107%. Also, the cell viability was 127% under setting [13]; 114% under setting [14]; 132% under setting [15]; 133% under setting [16]; 128% under setting [17]; 140% under setting [18]. Moreover, the cell viability by setting is: under setting [19], 143%; under setting [20], 161%; under setting [21], 153%; under setting [22], 140%.
